Laboratory results published in US20220062240A1, “METHODS OF TREATING CANCER USING A CLK INHIBITOR” (BioSplice Therapeutics, Inc., priority 2018, published 2022).
Read-outs that look alike come from different tables or passages of the source.

Assays:
[1] = target: T1, CLK2 (Homo sapiens, UniProt P49760); experiment: CLK2 kinase activity assay (Z-lyte, Ser/Thr 6 peptide); assay type: biochemical; conditions: recombinant CLK2 kinase, ATP 60 μM; read-out: EC50
T1 construct: purchased Thermo Fisher (Life Technologies), Z'-LYTE Kinase Assay Kits
T1 sequence (P49760 whole entry): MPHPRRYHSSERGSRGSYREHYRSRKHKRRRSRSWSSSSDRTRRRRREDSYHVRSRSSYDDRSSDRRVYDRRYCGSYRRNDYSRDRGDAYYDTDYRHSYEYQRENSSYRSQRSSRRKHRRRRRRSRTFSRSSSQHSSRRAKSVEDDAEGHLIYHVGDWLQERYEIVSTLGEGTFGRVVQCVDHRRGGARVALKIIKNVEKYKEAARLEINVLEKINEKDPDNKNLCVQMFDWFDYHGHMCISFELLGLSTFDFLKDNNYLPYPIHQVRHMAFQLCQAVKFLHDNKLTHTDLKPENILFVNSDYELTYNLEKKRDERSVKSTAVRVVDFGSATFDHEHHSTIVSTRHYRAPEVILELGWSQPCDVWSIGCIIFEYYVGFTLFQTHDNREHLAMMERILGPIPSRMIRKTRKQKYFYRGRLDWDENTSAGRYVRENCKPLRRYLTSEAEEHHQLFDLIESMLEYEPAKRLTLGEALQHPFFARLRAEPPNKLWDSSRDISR
Description: All reactions were performed in duplicate.

[2] = test system: BT-549; experiment: CellTiter-Glo Viability Assay, breast cancer; assay type: cell-based; conditions: Homo sapiens, 96 h; BT-549, breast cancer, four days; read-out: EC50
[3] = test system: CAMA1; experiment: CellTiter-Glo Viability Assay, breast cancer; assay type: cell-based; conditions: Homo sapiens, CAMA-1, 96 h; CAMA1, breast cancer, four days; read-out: EC50
[4] = test system: DU4475; experiment: CellTiter-Glo Viability Assay, breast cancer; assay type: cell-based; conditions: Homo sapiens, DU-4475, 96 h; DU4475, breast cancer, four days; read-out: EC50
[5] = test system: HCC1599; experiment: CellTiter-Glo Viability Assay, breast cancer; assay type: cell-based; conditions: Homo sapiens, 96 h; HCC1599, breast cancer, four days; read-out: EC50
[6] = test system: MCF7; experiment: CellTiter-Glo Viability Assay, breast cancer; assay type: cell-based; conditions: Homo sapiens, 96 h; MCF7, breast cancer, four days; read-out: EC50
[7] = test system: MDA-MB-231-Luc; experiment: CellTiter-Glo Viability Assay, breast cancer; assay type: cell-based; conditions: Homo sapiens, 96 h; MDA-MB-231-Luc, breast cancer, four days; read-out: EC50
[8] = test system: T47D; experiment: CellTiter-Glo Viability Assay, breast cancer; assay type: cell-based; conditions: Homo sapiens, 96 h, breast cancer, four days, read-out: EC50
[9] = test system: ZR-75-1; experiment: CellTiter-Glo Viability Assay, breast cancer; assay type: cell-based; conditions: Homo sapiens, 96 h; ZR-75-1, breast cancer, four days; read-out: EC50
[10] = test system: all 50 cell lines; experiment: CellTiter-Glo Viability Assay, average across all cell lines; assay type: cell-based; conditions: Homo sapiens; across all 50 cell lines; read-out: average EC50 for inhibition of cancer cell proliferation
Method in brief: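 Cancer cell lines of several tumour types plated at 300-3,000 cells/well and exposed to compound in duplicate for four days at 37° C, 5% CO2, with DMSO-treated controls. Viability read by CellTiter-Glo luminescence (ATP content); EC50 derived from dose-response curves.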

[11] = test system: colorectal cancer (6 cell lines); experiment: CellTiter-Glo Viability Assay, colorectal cancer; assay type: cell-based; conditions: Homo sapiens, inhibition of cancer cell proliferation
[12] = test system: haematopoietic & lymphoid tumors (13 cell lines); experiment: CellTiter-Glo Viability Assay, haematopoietic & lymphoid tumors; assay type: cell-based; conditions: Homo sapiens, inhibition of cancer cell proliferation
[13] = test system: liver cancer (3 cell lines); experiment: CellTiter-Glo Viability Assay, liver cancer; assay type: cell-based; conditions: Homo sapiens, inhibition of cancer cell proliferation
[14] = test system: lung cancer (4 cell lines); experiment: CellTiter-Glo Viability Assay, lung cancer; assay type: cell-based; conditions: Homo sapiens, inhibition of cancer cell proliferation
[15] = test system: ovarian cancer (4 cell lines); experiment: CellTiter-Glo Viability Assay, ovarian cancer; assay type: cell-based; conditions: Homo sapiens, inhibition of cancer cell proliferation
[16] = test system: pancreatic cancer (8 cell lines); experiment: CellTiter-Glo Viability Assay, pancreatic cancer; assay type: cell-based; conditions: Homo sapiens, inhibition of cancer cell proliferation
[17] = test system: prostate cancer (5 cell lines); experiment: CellTiter-Glo Viability Assay, prostate cancer; assay type: cell-based; conditions: Homo sapiens
[18] = target: CLK3 (Homo sapiens, UniProt P49761); experiment: CLK3 kinase activity assay (Z-lyte, Ser/Thr 18 peptide)
Chain of CLK3 (P49761 whole entry): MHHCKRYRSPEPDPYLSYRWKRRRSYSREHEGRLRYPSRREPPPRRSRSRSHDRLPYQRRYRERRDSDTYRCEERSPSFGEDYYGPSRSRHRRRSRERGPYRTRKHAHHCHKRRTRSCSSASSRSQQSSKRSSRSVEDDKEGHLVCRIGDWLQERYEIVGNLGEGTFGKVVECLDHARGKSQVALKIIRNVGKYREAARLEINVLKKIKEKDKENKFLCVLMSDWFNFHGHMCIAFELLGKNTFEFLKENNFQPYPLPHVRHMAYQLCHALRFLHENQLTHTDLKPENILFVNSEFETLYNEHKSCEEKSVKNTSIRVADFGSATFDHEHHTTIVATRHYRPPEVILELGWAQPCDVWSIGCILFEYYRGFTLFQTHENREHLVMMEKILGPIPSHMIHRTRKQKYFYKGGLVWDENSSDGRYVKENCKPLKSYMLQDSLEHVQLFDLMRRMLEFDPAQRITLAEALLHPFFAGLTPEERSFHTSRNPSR

CN1CCN(c2cc(Nc3ncc4c(-c5ccc6ncccc6c5)c[nH]c4n3)ccn2)CC1 [Compound 67]
EC50 [1]: 2.4 nM | EC50 [2]: 731 nM | EC50 [3]: 1340 nM | EC50 [4]: 247 nM | EC50 [5]: 38 nM | EC50 [6]: 3.7 µM | EC50 [7]: 2700 nM | EC50 [8]: 4.96 µM | EC50 [9]: 2920 nM | EC50 [10]: 1070 nM | EC50 ([11]; HCT-116, HCT116 cell line, read-out: Colorectal cancer, EC50 (μM) HCT116): 0.318 µM | EC50 ([11]; HT-29, HT29 cell line, read-out: Colorectal cancer, EC50 (μM) HT29): 1.2 µM | EC50 ([11]; SW-620, SW620 cell line, read-out: Colorectal cancer, EC50 (μM) SW620): 0.156 µM | EC50 ([11]; DLD-1 cell line, read-out: Colorectal cancer, EC50 (μM) DLD-1): 0.264 µM | EC50 ([11]; SW48 cell line, read-out: Colorectal cancer, EC50 (μM) SW48): 0.147 µM | EC50 ([11]; SW480 cell line, read-out: Colorectal cancer, EC50 (μM) SW480): 0.644 µM | EC50 ([12]; DND41, DND-41 cell line, read-out: Haematopoietic & Lymphoid tumors, EC50 (μM) DND-41): 0.221 µM | EC50 ([12]; MV4-11, MV-4-11 cell line, read-out: Haematopoietic & Lymphoid tumors, EC50 (μM) MV-4-11): 0.032 µM | EC50 ([12]; Rec1, REC-1 cell line, read-out: Haematopoietic & Lymphoid tumors, EC50 (μM) REC-1): 0.149 µM | EC50 ([12]; SU-DHL-4, SUDHL4 cell line, read-out: Haematopoietic & Lymphoid tumors, EC50 (μM) SUDHL4): 0.241 µM | EC50 ([12]; HL-60 cell line, read-out: Haematopoietic & Lymphoid tumors, EC50 (μM) HL-60): 1.54 µM | EC50 ([12]; JM1 cell line, read-out: Haematopoietic & Lymphoid tumors, EC50 (μM) JM1): 0.062 µM | EC50 ([12]; JURKAT, Clone E6-1 cell line, read-out: Haematopoietic & Lymphoid tumors, EC50 (μM) JURKAT, Clone E6-1): 0.298 µM | EC50 ([12]; JeKo-1 cell line, read-out: Haematopoietic & Lymphoid tumors, EC50 (μM) JeKo-1): 0.139 µM | EC50 ([12]; KASUMI-1 cell line, read-out: Haematopoietic & Lymphoid tumors, EC50 (μM) KASUMI-1): 0.11 µM | EC50 ([12]; Loucy cell line, read-out: Haematopoietic & Lymphoid tumors, EC50 (μM) Loucy): 0.28 µM | EC50 ([12]; MOLT-4 cell line, read-out: Haematopoietic & Lymphoid tumors, EC50 (μM) MOLT-4): 0.381 µM | EC50 ([12]; TF-1 cell line, read-out: Haematopoietic & Lymphoid tumors, EC50 (μM) TF-1): 0.789 µM | EC50 ([12]; TOLEDO cell line, read-out: Haematopoietic & Lymphoid tumors, EC50 (μM) TOLEDO): 0.108 µM | EC50 ([13]; SNU-398, SNU398 cell line, read-out: Liver cancer, EC50 SNU398): 0.071 µM | EC50 ([13]; HEPG2 cell line, read-out: Liver cancer, EC50 HEPG2): 3.29 µM | EC50 ([13]; PLC/PRF/5 cell line, read-out: Liver cancer, EC50 PLC/PRF/5): 3.35 µM | EC50 ([14]; A-427, A427 cell line, read-out: Lung cancer, EC50 (μM) A427): 0.502 µM | EC50 ([14]; HCC78, HCC-78 cell line, read-out: Lung cancer, EC50 (μM) HCC-78): 1.44 µM | EC50 ([14]; NCI-H460 cell line, read-out: Lung cancer, EC50 (μM) NCI-H460): 0.919 µM | EC50 ([14]; NCI-H522 cell line, read-out: Lung cancer, EC50 (μM) NCI-H522): 0.097 µM | EC50 ([15]; PA-1, PA1 cell line, read-out: Ovarian cancer, EC50 (μM) PA1): 0.768 µM | EC50 ([15]; TOV112D, TOV-112D cell line, read-out: Ovarian cancer, EC50 (μM) TOV-112D): 0.421 µM | EC50 ([15]; OV-90 cell line, read-out: Ovarian cancer, EC50 (μM) OV-90): 2.86 µM | EC50 ([15]; OVCAR-3 cell line, read-out: Ovarian cancer, EC50 (μM) OVCAR-3): 0.291 µM | EC50 ([16]; BXPC-3, BxPC3 cell line, read-out: Pancreatic cancer, EC50 BxPC3): 660 nM | EC50 ([16]; CAPAN-1, Capan1 cell line, read-out: Pancreatic cancer, EC50 Capan1): 583 nM | EC50 ([16]; Capan-2, Capan2 cell line, read-out: Pancreatic cancer, EC50 Capan2): 1120 nM | EC50 ([16]; MIA PaCa-2 cell line, read-out: Pancreatic cancer, EC50 MIA PaCa-2): 267 nM | EC50 ([16]; PANC 05.04 cell line, read-out: Pancreatic cancer, EC50 PANC 05.04): 3470 nM | EC50 ([16]; PANC-1 cell line, read-out: Pancreatic cancer, EC50 PANC-1): 1900 nM | EC50 ([16]; UPAFII cell line, read-out: Pancreatic cancer, EC50 UPAFII): 511 nM | EC50 ([17]; DU-145, read-out: Prostate cancer EC50 Du-145): 654 nM | EC50 ([17]; PC-3, PC3 cell line, inhibition of cancer cell proliferation, read-out: Prostate cancer EC50 PC3): 860 nM | EC50 ([17]; 22Rv1 cell line, inhibition of cancer cell proliferation, read-out: Prostate cancer EC50 22Rv1): 348 nM | EC50 ([17]; LNCap clone FGC cell line, inhibition of cancer cell proliferation, read-out: Prostate cancer EC50 LNCap clone FGC): 4690 nM | EC50 ([17]; VCaP (Sigma) cell line, inhibition of cancer cell proliferation, read-out: Prostate cancer EC50 VCaP (Sigma)): 756 nM | EC50 [18]: 10.3 nM
